Data: patent US10294202B2, “Pyrrolidinones as herbicides” (FMC Corporation, priority 2013, dated 2019)

Columns and labels:
[1] = test system: kochia; assay: Test E preemergence herbicide test; type: in vivo, Kochia scoparia; set-up: key: 0 = no effect, 100 = complete control
From the text: (§1) Seeds of plant species selected from corn (Zea mays), soybean (Glycine max), velvetleaf (Abutilon theophrasti), lambsquarters (Chenopodium album), wild poinsettia (Euphorbia heterophylla), pigweed, palmer (palmer pigweed, Amaranthus palmeri), waterhemp (common waterhemp, Amaranthus rudis), surinam grass (Brachiaria decumbens), crabgrass, large (large crabgrass, Digitaria sanguinalis), crabgrass, Brazil (Brazilian crabgrass, Digitaria horizontalis), panicum, fall (fall panicum, Panicum dichotomiflorum), foxtail, giant (giant foxtail, Setaria faberii), foxtail, green (green foxtail, Setaria viridis), goosegrass (Eleusine indica), johnsongrass (Sorghum halepense), ragweed (common ragweed, Ambrosia elatior), barnyardgrass (Echinochloa crus-galli), sandbur (southern sandbur, Cenchrus echinatus), arrowleaf […] rhombifolia), ryegrass, Italian (Italian ryegrass, Lolium multiflorum), dayflower, VA (Virginia dayflower, Commelina virginica), field bindweed (Convolvulus arvensis), morningglory (Ipomoea coccinea), nightshade (eastern black nightshade, Solanum ptycanthum), kochia (Kochia scoparia), nutsedge, yellow (yellow nutsedge, Cyperus esculentus), cocklebur (common cocklebur, Xanthium strumarium), smartweed (ladysthumb smartweed, Polygonum Persicaria) and beggarticks (hairy beggarticks, Bidens pilosa), were planted into a silt loam soil and treated preemergence with test chemicals formulated in a non-phytotoxic solvent mixture which included a surfactant. Treated plants and controls were maintained in a greenhouse for 21 days, after which time all species were compared to controls and visually evaluated. Plant response ratings, summarized in Table E, are based on a scale of 0 to 100 where 0 is no effect and 100 is complete control. A dash (-) response means no test result.

[2] = test system: ragweed; assay: Test E preemergence herbicide test; type: in vivo, Ambrosia elatior; set-up: key: 0 = no effect, 100 = complete control
From the text: as §1

SMILES: O=C1NCC(c2ccc(F)cc2)C1C(=O)Nc1ccccc1F (racemic) [Compound 16]
- Plant response rating, Kochia ([1]; 31 g ai/ha): 0
- Plant response rating, Kochia ([1]; 125 g ai/ha): 0
- Plant response rating, Kochia ([1]; 250 g ai/ha): 0
- Plant response rating, Ragweed ([2]; 62 g ai/ha): 0
- Plant response rating, Ragweed ([2]; 125 g ai/ha): 0
- Plant response rating, Ragweed ([2]; 250 g ai/ha): 0

SMILES: O=C1NCC(c2cccc(Br)c2)C1C(=O)Nc1ccccc1F (stereo not drawn) [Compound 66]
- Plant response rating, Kochia ([1]; 16 g ai/ha): 0
- Plant response rating, Kochia ([1]; 31 g ai/ha): 0
- Plant response rating, Kochia ([1]; 62 g ai/ha): 0
- Plant response rating, Kochia ([1]; 125 g ai/ha): 0
- Plant response rating, Kochia ([1]; 250 g ai/ha): 0
- Plant response rating, Ragweed ([2]; 16 g ai/ha): 0
- Plant response rating, Ragweed ([2]; 31 g ai/ha): 0
- Plant response rating, Ragweed ([2]; 62 g ai/ha): 0
- Plant response rating, Ragweed ([2]; 125 g ai/ha): 0
- Plant response rating, Ragweed ([2]; 250 g ai/ha): 20

SMILES: O=C1NCC(c2ccc(C(F)(F)F)cc2)C1C(=O)Nc1ccc(F)c(F)c1F (stereo not drawn) [Compound 232]
- Plant response rating, Kochia ([1]; 31 g ai/ha): 90
- Plant response rating, Kochia ([1]; 62 g ai/ha): 95
- Plant response rating, Kochia ([1]; 125 g ai/ha): 98
- Plant response rating, Kochia ([1]; 250 g ai/ha): 98
- Plant response rating, Ragweed ([2]; 31 g ai/ha): 35
- Plant response rating, Ragweed ([2]; 62 g ai/ha): 75
- Plant response rating, Ragweed ([2]; 125 g ai/ha): 95
- Plant response rating, Ragweed ([2]; 250 g ai/ha): 95
